Series [1] has as its system E. cloacae A-9659. Kind of series: In vitro MIC, tube dilution. The format is cell-based. To be noted: Enterobacter cloacae, A9659, tube dilution, Nutrient Broth, overnight incubation at 37° C.; additional data table. The text has this: N-formimidoyl thienamycin was included as a comparison compound.
For series [2], the system named is S. faecalis A20688. In words: In vitro MIC, tube dilution. In kind it is cell-based. Conditions: Enterococcus faecalis, A20688, tube dilution, Nutrient Broth, overnight incubation at 37° C.; additional data table.
Series [3] relates to P. aeruginosa A21213. In words: In vitro MIC, tube dilution. In kind it is cell-based. To be noted: Pseudomonas aeruginosa, A21213, tube dilution, Nutrient Broth, overnight incubation at 37° C.; additional data table.
The subject of series [4] is P. vulgaris A21559. In words: In vitro MIC, tube dilution. Conditions: Proteus vulgaris, A21559, tube dilution, Nutrient Broth, overnight incubation at 37° C.; additional data table. The format is cell-based.
The subject of series [5] is P. morganii A15153. Kind of series: In vitro MIC, tube dilution. In kind it is cell-based. To be noted: Morganella morganii, A15153, tube dilution, Nutrient Broth, overnight incubation at 37° C.; additional data table; read-out: MIC M. morganii A15153.
The nature of series [6]: Blood levels in mice after intramuscular administration. Conditions: mouse, blood, im, 20 mg/kg, intramuscular dose of 20 mg/kg. In kind it is in vivo. From the text:
Compounds were solubilized in 0.1 M phosphate buffer pH 7. Values are fro
a single test; 4 mice used per compound.
*t1/2 refers to halflife in minutes
**AUC refers to the area under the blood concentrationtime curve
(§1) Also shown is the urinary recovery in the mice.
Compounds were solubilized in 0.1 M phosphate buffer, pH 7.
Values based on a single test; 4 mice per compound.
*T1/2 refers to halflife in minutes

In series [7] the test system is S. pyogenes A-9604. In words: In vitro MIC, tube dilution. To be noted: Streptococcus pyogenes, A9604, tube dilution, Nutrient Broth, overnight incubation at 37° C.; additional data table. In kind it is cell-based.
The subject of series [8] is E. cloacae A-9656. In words: In vitro MIC, tube dilution. The format is cell-based. To be noted: Enterobacter cloacae, A9656, tube dilution, Nutrient Broth, overnight incubation at 37° C.; additional data table.
In series [9] the test system is P. rettgeri A22424. In words: In vitro MIC, tube dilution. In kind it is cell-based. To be noted: Providencia rettgeri, A22424, tube dilution, Nutrient Broth, overnight incubation at 37° C.; additional data table.
Series [10] can be described thus: Urinary recovery after intramuscular administration to mice. In kind it is in vivo. Conditions: mouse, urine, im, 20 mg/kg, intramuscular dose of 20 mg/kg, 0-6 hour collection, read-out: Urine Recovery. The procedure:
Compounds were solubilized in 0.1 M phosphate buffer pH 7. Values are from a single test; 4 mice per compound.
as §1
***Recovery based on 0-6 hour collection

Series [11] deals with P. mirabilis A-9900. In words: In vitro MIC, tube dilution. The format is cell-based. Conditions: Proteus mirabilis, A9900, tube dilution, Nutrient Broth, overnight incubation at 37° C.; additional data table.
Series [12] concerns S. aureus A-9606 (Pen-res.). Kind of series: In vitro MIC, tube dilution. In kind it is cell-based. Conditions: Staphylococcus aureus, Nutrient Broth, overnight incubation at 37° C., additional data table, read-out: MIC S. aureus (Pen-res.) A-9606.
Series [13] deals with E. coli A15119. Kind of series: In vitro MIC, tube dilution. The format is cell-based. To be noted: Escherichia coli, A15119, tube dilution, Nutrient Broth, overnight incubation at 37° C.; additional data table.
The test system of series [14] is S. pneumoniae A-9585. In words: In vitro MIC, tube dilution. The format is cell-based. To be noted: Streptococcus pneumoniae, A9585, Nutrient Broth, overnight incubation at 37° C., additional data table.
The test system of series [15] is S. aureus A-9537. Kind of series: In vitro MIC, tube dilution. In kind it is cell-based. Conditions: Staphylococcus aureus, overnight incubation at 37° C., additional data table.
For series [16], the system named is P. aeruginosa A-9843A. Kind of series: In vitro MIC, tube dilution. In kind it is cell-based. To be noted: Pseudomonas aeruginosa, A9843A, Nutrient Broth, overnight incubation at 37° C., additional data table.
Series [17] concerns K. pneumoniae A-9664. Kind of series: In vitro MIC, tube dilution. In kind it is cell-based. To be noted: Klebsiella pneumoniae, A9664, tube dilution, Nutrient Broth, overnight incubation at 37° C.; additional data table.
Series [18] relates to K. pneumoniae A20468. In words: In vitro MIC, tube dilution. To be noted: Klebsiella pneumoniae, A20468, tube dilution, Nutrient Broth, overnight incubation at 37° C.; additional data table. The format is cell-based.
The subject of series [19] is P. aeruginosa A-9843a. Kind of series: Protective effect in the intramuscular treatment of infected mice (PD50). In kind it is in vivo. To be noted: Pseudomonas aeruginosa, A9843A, im, read-out: PD50/treatment, P. aeruginosa A9843A. The procedure: The PD50 (dose in mg/kg required to give protection to 50% of the infected mice) is indicated.
Treatment Schedule: Mice were treated i.m. with drugs 0 and 2 hours post-infection; 5 mice per dose were used for each test
*For compound of Ex. 2, mice were infected i.p. with 2 × 10^9
compounds of Ex. 4 and 5, mice were infected i.p. with ~9 ×
were treated i.m. with drugs 0 and 2 h postinfection.

In brackets after ≈: the same amount, converted by molar mass. Where two headings read alike, the source gives them in different places.

The term MIC denotes the lowest concentration found to suppress growth. One may read the Cmax as the peak of the concentration-time curve. As a reminder, the AUC is the area under the concentration-time curve, a measure of exposure. As to `C[C@@H](O)[C@H]1C(=O)N2C(C(=O)[O-])=C(SCC[N+]3(C)CCN(C)CC3)C[C@H]12` [Example 4, (5R,6S)3-[2-(1,4-dimethyl-1-piperazinium)-ethylthio]-6-[1-(R)-hydroxyethyl]-7-oxo-1-azabicyclo-[3.2.0]hept-2-ene-2-carboxylate], the MIC was 1 mg/L (≈ 2.71 µM) in series [1]; 2 mg/L (≈ 5.41 µM) in series [2]; 1 mg/L (≈ 2.71 µM) in [3]; 0.25 mg/L (≈ 0.677 µM) in series [4]; 1 mg/L (≈ 2.71 µM) in [5]; 0.004 mg/L (≈ 0.0108 µM) in [7]. Also, the MIC in series [8] amounted to 2 mg/L (≈ 5.41 µM); in series [9] it was 1 mg/L (≈ 2.71 µM); in series [11], 0.25 mg/L (≈ 0.677 µM); in series [12], 0.06 mg/L (≈ 0.162 µM); in series [13] it was 0.13 mg/L (≈ 0.352 µM); in [14], 0.004 mg/L (≈ 0.0108 µM). Moreover, the minimal inhibitory concentration (MIC) is 0.06 mg/L (≈ 0.162 µM) in [15] (A9537, 50% serum, tube dilution, read-out: MIC S. aureus-50% serum A-9537); 0.03 mg/L (≈ 0.0812 µM) in series [15] (A9537, tube dilution, Nutrient Broth, read-out: MIC S. aureus A-9537); 16 mg/L (≈ 43.3 µM) in [16]; 0.25 mg/L (≈ 0.677 µM) in [17]; 0.5 mg/L (≈ 1.35 µM) in series [18]. In series [6], the Cmax turned out to be 17.3 µg/mL. The AUC in series [6] (read-out: Blood AUC) is 7.6 µg·h/mL. Also, in [6] (read-out: Blood T1/2), the half-life was 12 min. Further, the dose excreted at 6 h in series [10] was 33 ± 11%. Besides, the ED50 in [19] was found to be 2.7 mg/kg.

These data come from patent US4536335A, “Carbapenem antibiotics” (Bristol-Myers Company, priority 1983, dated 1985).
